Data from a melting point compilation (Tetko et al.; mined from patent text by program, amines drawn as free bases though some values may be those of a salt).

Compound	melting point [°C]
CCCc1nc2c(N)nc(C)c(C)c2n1CC1(O)CCCCC1	214 to 216
CCCc1ncc(CN2CC=C(c3ccc(F)cc3)CC2)c(N)n1	142 to 145
CN1CCNCCNCCCNCCNCC1	85 to 87
CC(=O)c1ccc(Oc2ccc(S(C)(=O)=O)cc2)cc1	131 to 132
CCOC(=O)CN(C(=O)C(F)(F)F)C(Sc1ccccc1)P(=O)(O)ONC(C)C (centres undefined)	102 to 103
Cc1cc(NC(C)(C)C)nc(Cl)c1C#N	109
CC(=N)N(C)C1CCCCC1	108 to 110
CN(C)c1ccc(C2CC3(C)C(O)CC(O)C3C3CCC4CC5(CCC4=C23)OCCO5)cc1 (centres undefined)	107 to 109
CCCCCC(=O)NS(=O)(=O)/C=C/c1cc(OC(C)C)nn1Cc1ccc(Cl)cc1Cl	73 to 75
Cn1c(OCC(F)(F)F)nn(C(=O)Oc2ccccc2)c1=O	105
Fc1ccc2cc(C3CCNCC3)sc2c1	115 to 120
O=C(O)Cc1ccc(C(=O)c2cccs2)cc1	126 to 129
O=C(NC1CCCCC1)C12CC3CC(CC(C3)C1)C2	199 to 200
CC(=O)Nc1ccc(CC(=O)O)cc1Br	157 to 159
COc1ccc(C(C)c2cc3c(cc2OC)OCO3)cc1 (centres undefined)	93 to 94
Cc1cc(CCc2c(Br)c(C)c(O)c(C)c2Br)c(Br)c(C)c1O	249 to 255
CCc1cccc(C)c1S(=O)(=O)c1nn(C(=O)N(CC)CC)cc1C#N	101 to 102
CCn1nnc(C(C=CC=O)=C(c2ccc(F)cc2)c2ccc(F)cc2)n1	117 to 120
CNC(=S)N1CC(Oc2cccc(C(F)(F)F)c2)C1	79 to 86
Nc1c(Cl)cc(C(=O)OC2CCN(CCCC(=O)c3ccc4[nH]c(=O)[nH]c4c3)CC2)c2c1CCO2	273

Compound	melting point [°C]
CCOCc1nc2c(N)nc3cc(OCCc4c[nH]c5ccccc45)ccc3c2n1CC(C)(C)O	220 to 222
Cc1ccc(C(=S)Oc2nc[nH]c2C(N)=O)cc1	219
CC(=O)N1CC(C)c2c1cc(C)c(O)c2C (centres undefined)	204 to 205
FC(F)c1ccc2c(c1)C(Cc1ccncc1)(Cc1ccncc1)c1ccccc1-2	> 300
N#Cc1nc(F)c(F)c(F)c1Cl	41.5 to 43
CN1CC[C@]2(c3cccc(O)c3)CC(=O)CC[C@@H]2C1 (relative stereo)	175
CC(C)n1c(=O)[nH]c(C(F)(F)F)c(Br)c1=O	149 to 150
CC1(C)C(=O)Nc2ccc([N+](=O)[O-])cc21	192 to 196
O=[N+]([O-])c1cc(F)c(N2CCC3(CC2)CO3)c(F)c1	96 to 97
COc1ccc(NC(=O)c2c(Cl)cccc2Cl)cc1OC1CCCC1	184 to 185
COc1cc(N)c(Cl)cc1C(=O)NN1CCN(Cc2ccsc2)CC1	223 to 224
Cc1cc2c(Cl)nc(N)nc2o1	255 to 257
CCN=C(NC#N)NCCSCc1ncccc1Br	123 to 124
CCCCCCCCCCCCCCc1ccc(OCC(CO)OC)cc1 (centres undefined)	43 to 45
O=C1CCCC12CCn1c(cc3ccccc31)C2 (centres undefined)	128 to 130
NS(=O)(=O)c1ccc(-c2ccco2)cc1	202 to 203
COc1cc(Cl)c([N+](=O)[O-])cc1OC	103 to 105
CC1CCC(C(C)C)C(OC(=O)N2CC3CC(C2)CN(C(=O)C2(O)NCCC2Oc2ccc(C#N)cc2)C3)C1 (single isomer, unassigned; (-))	111 to 112
CCc1nn2c(N3CCN(C)CC3)ccnc2c1S(=O)(=O)c1ccccc1	206 to 207
COC1(c2cccc(OCc3ccc(-n4cnc(C)c4)cc3)c2)CCOCC1	120 to 121

Compound	melting point [°C]
COc1ccc(CC2=C(C)N=NC2=O)cc1OC1CCCC1	186 to 187
COc1cc(OC)cc(-c2nc[nH]c2-c2ccc(OC)c(O)c2O)c1	132 to 134
CC(C)c1cccc(C(C)C)c1Oc1ccc(C#N)c(C#N)c1	114 to 116
CC(C)(C)NS(=O)(=O)c1ccccc1C=C1CCOC1=O	173 to 176
O=C1CC2(C(=O)N1)c1ccccc1Oc1ccccc12	226 to 228
CCc1cnc(C2=NC(C)(C(C)C)C(=O)N2)c(C(=O)OC(C)CC)c1 (centres undefined)	83 to 87
CC(=O)SC[C@H]1CCCCCC[C@H](C(=O)N2C[C@H](O)C[C@H]2C(=O)OCc2ccccc2)NC1=O	145
CCOc1ccc2c(c1)C(=O)CCC2	34 to 36
Cc1cc2cccc([C@H](O)CO)c2nc1-c1ccccc1	117
COc1cc2c(cc1OC)C(c1cccc(Cl)c1)=NN=C(C)C2	166 to 168
COc1cccc2c1C(OC)(OC)C=CC2=O	62 to 63
Cn1c(=O)c2c(nc(Cl)n2Cc2ccccc2Br)n(C)c1=O	165 to 167
N#CNC(=NCCN1CCC(C2(c3ccc(F)cc3)OCCO2)CC1)N1CCCCC1	155 to 157
O=C1CNC(c2ccc(Cl)cc2)=NN1	> 260
CCCC[C@H](NC(=O)[C@H](CCC)NC(=O)OCc1ccccc1)C(=O)CSCc1ccco1	95 to 96
CC12CCC3C(CC=C4CC(O)CCC43C)C1CC=C2I (centres undefined)	169 to 171
O=C1COCC2=C1C(c1ccc(F)c(Br)c1)C1=C(CCS1(=O)=O)N2 (centres undefined)	> 260
CC(N)C(=O)N1CC(=O)N(CC(N)=O)C1(C)C (centres undefined)	196 to 197
Cc1nccc2[nH]c(=O)c(C(=O)NN)cc12	> 310
CCOCc1nc2c(N)nc3ccccc3c2n1CCNC(=O)OC(C)(C)C	201 to 202

Second part, the compound after the results:

melting point [°C]	Compound
191	O=C(Nc1cc(S(=O)(=O)NCCO)sc1Cl)c1cnn2c(C(F)(F)F)cc(-c3ccc(C(F)(F)F)cc3)nc12
92 to 93	COC(=O)c1ccc(-c2cc(-c3cc4c(cc3C)CCCC4(C)C)[nH]n2)cc1
118 to 122	CSc1ccc(C2=C(c3ccc(F)cc3)C(=O)OC2)c(F)c1
150 to 152	COC(=O)c1ccc(CSc2c(C(N)=O)sc3ccc(OC)cc23)cc1
283	O=C(O)Cc1cccc(C(=O)c2cc3cc(C(=O)O)sc3s2)c1
280 to 281	CC(=O)Nc1nc(-c2ccc(C(C)(C)C)cc2)c(-c2ccncc2)s1
129	COc1ccc(-c2cc(=O)n(CC3CC3)nc2-c2ccc(OC)cc2)cc1
218 to 220	CC(=O)Nc1ccc(/C=C/C(=O)NCC(=O)N(C)c2ccc(C)c(CCl)c2C)cn1
127 to 129	O=C(c1ccc(-n2ccc(C(F)(F)F)n2)cc1C(F)(F)F)N1Cc2cccnc2Nc2ccccc21
202	CNN(NC)C(=O)Nc1cccc2c1C(=O)c1c-2n[nH]c1-c1ccsc1
158	CCCCc1nc(SC)c(Br)n1Cc1ccc(-c2ccccc2S(=O)(=O)N=CN(C)C)cc1
121	CS(=O)(=O)Oc1ccc(Oc2ccccc2)cc1CC(=O)O
206 to 208	CC(C)c1ccc(-c2csc(-c3cccc(C(=O)O)c3)n2)cc1
244	CCCc1c(-c2ccc(C(=O)OC)cc2)oc2cc(NC(C)=O)ccc2c1=O
139 to 141	CCCN(CCC)S(=O)(=O)c1cc(-c2csc(=Nc3ccc(C)cc3C)n2C)ccc1Cl
113 to 115	CC/C=C/CNC(=O)[C@H]1N(C(=O)[C@@H](O)[C@H](Cc2ccccc2)NC(=O)c2cccc(O)c2C)CSC1(C)C
191 to 193	CC1(C)C(=O)N(c2ccc([N+](=O)[O-])c(C(F)(F)F)c2)C(=O)N1CC=CCN1C(=O)N(c2ccc([N+](=O)[O-])c(C(F)(F)F)c2)C(=O)C1(C)C
123 to 125	Cc1cc(F)ccc1-c1c(O)c(C)c(-c2ccccn2)oc1=O
188 to 190	COc1cc(Nc2c(C#N)cnc3cc(-c4cscc4CN4CCOCC4)ccc23)c(Cl)cc1Cl
206 to 208	COc1ccc2nc(NC(=O)C(CC3CCCC3)c3ccc(S(=O)(=O)N(C)Cc4ccccc4)cc3)sc2n1 (centres undefined)

melting point [°C]	Compound
114 to 115	N#CCCNC(=O)c1ccnc(-c2cccc3oc(Cc4cccc(C(F)(F)F)c4)cc23)c1
136 to 138	CC(Oc1ccc(CNC(=O)c2cccnc2Oc2ccc3c(c2)OCO3)c(F)c1)C(=O)O (centres undefined)
258	O=C(Nc1nccs1)c1c(C(F)(F)F)nc2c(C(F)(F)F)cccc2c1O
180 to 182	O=C(Nc1cccnc1)N1CCN(c2cc(-c3ccc(F)cc3)ncn2)CC1
135 to 141	CCCc1nc2c(N)nc3cc(-c4ccccc4)ccc3c2n1CC(C)(C)NS(C)(=O)=O
196 to 200	Nc1ccccc1C(=O)NC(=O)Nc1ccc(Oc2ncc(Br)cn2)c(Cl)c1
150 to 152	CCOC(=O)c1c(C(C)(C)O)nc(CC)n1Cc1ccc(-c2ccccc2-c2nnnn2C(c2ccccc2)(c2ccccc2)c2ccccc2)cc1
188 to 190	O=C(O)Cc1cc(Cl)cc2c(-c3ccccc3)onc12
99.5 to 100	CC(C)Oc1ccc(CCCCOc2cc(CCC(=O)O)n(C(C)C)n2)c(Oc2ncc(C(F)(F)F)cc2Cl)c1
70 to 72	Clc1ccc(-c2cc(C3CC3)nc(Cl)n2)cc1
202 to 204	NC(=O)c1ccc(-c2ccc3nnn(Cc4cc5cccnc5cc4F)c3n2)cc1Cl
218 to 220	CC(=O)Nc1cnn2c1-c1ccccc1N(C(C)=O)C2C (centres undefined)
168 to 169	CCOC(=O)c1cc2cc(C)cc(NS(=O)(=O)c3cccs3)c2[nH]1
187 to 188	O=C(O)c1cn(Cc2ccc(OCc3csc(-c4ccccc4)n3)cc2)nc1-c1cccs1
133 to 135	FC(F)(F)c1ccc(COc2ccnc(CCl)c2)cc1
170 to 173	Cc1ccc(S(=O)(=O)N2CCC[C@H]2C(=O)N2c3ccc(Cl)c(Cl)c3C[C@@H]2C)cc1
141 to 143	Clc1cnn2c(-c3ccccn3)ccnc12
183 to 184	CCCOCCOc1ccc(-c2ccc3c(c2)C=C(C(=O)Nc2ccc(CN(C)C4CCOCC4)cc2)CCS3(=O)=O)cc1Cl
142 to 150	NNc1ccnc2c(NC(=O)c3c(Cl)cccc3Cl)cc(Cl)cc12
